The text below walks through data of ChEMBL document CHEMBL3091436, “4-Bicyclic heteroaryl-piperidine derivatives as potent, orally bioavailable Stearoyl-CoA desaturase-1 (SCD1) inhibitors. Part 1: urea-based analogs” (Bioorg Med Chem Lett, 2013).

Data set [1] concerns the target T1, Stearoyl-CoA desaturase (Homo sapiens) (UniProt O00767).
T1 sequence (whole entry): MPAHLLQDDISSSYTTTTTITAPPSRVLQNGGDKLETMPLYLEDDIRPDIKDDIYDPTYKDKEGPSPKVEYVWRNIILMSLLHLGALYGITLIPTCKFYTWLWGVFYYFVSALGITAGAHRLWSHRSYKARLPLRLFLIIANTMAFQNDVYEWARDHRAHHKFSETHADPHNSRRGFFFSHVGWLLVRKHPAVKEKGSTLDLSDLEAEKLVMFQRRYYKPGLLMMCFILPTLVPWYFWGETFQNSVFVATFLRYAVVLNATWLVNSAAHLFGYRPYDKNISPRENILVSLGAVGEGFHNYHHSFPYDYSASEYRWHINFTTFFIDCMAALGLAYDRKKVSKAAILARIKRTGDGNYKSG
Kind of data set: Inhibition of SCD1 in human A431 cells assessed as conversion of 13C-palmitic acid to 13C-palmitoleic acid after 4 hrs by LC/MS analysis. It is filed as cell-based. Particulars: A-431.

Data set [2] has as its target T2, Acyl-CoA desaturase 1 (Rattus norvegicus) (UniProt P07308).
T2 sequence (whole entry): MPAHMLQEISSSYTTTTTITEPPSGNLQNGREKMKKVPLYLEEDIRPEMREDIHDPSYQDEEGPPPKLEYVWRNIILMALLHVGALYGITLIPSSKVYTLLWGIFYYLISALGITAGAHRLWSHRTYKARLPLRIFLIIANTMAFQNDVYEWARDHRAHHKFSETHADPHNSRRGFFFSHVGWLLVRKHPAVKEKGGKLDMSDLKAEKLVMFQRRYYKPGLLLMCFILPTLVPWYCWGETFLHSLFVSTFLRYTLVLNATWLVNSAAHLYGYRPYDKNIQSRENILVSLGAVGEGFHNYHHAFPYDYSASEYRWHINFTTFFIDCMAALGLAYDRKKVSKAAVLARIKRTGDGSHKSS
Kind of data set: Inhibition of SCD1 in Sprague-Dawley rat liver microsomes using Stearoyl-[9,10-3H]-CoA as substrate assessed as [3H2O] generation at 1 uM.

Data set [3] concerns the target T3, Acyl-CoA desaturase 1 (Rattus norvegicus, UniProt P07308).
T3 sequence (P07308 whole entry): T2 sequence (whole entry)
Kind of data set: Inhibition of SCD1 in Sprague-Dawley rat liver microsomes using Stearoyl-[9,10-3H]-CoA as substrate assessed as [3H2O] generation.

A short description of data set [4]: Clearance in rat at 10 mg/kg, po. It is filed as ADME, organism-based. Further details: dose 10 mg/kg, route oral. Particulars: in vivo.
Data set [5] can be described thus: Cmax in DIO mouse at 30 mg/kg, po. The format is ADME, organism-based. Particulars: in vivo. Further details: dose 30 mg/kg, route oral.
Data set [6] concerns Mus musculus. Kind of data set: Hepatotoxicity in DIO C57BL/6 mouse assessed as plasma ALT level at 30 mg/kg, po qd after 10 days (reference value: 58 +/- 5 U/L). The format is toxicity, organism-based. Further details: dose 30 mg/kg, route oral. The settings on record: in vivo, 240 h.
For data set [7], the system named is Mus musculus. The data set is described as follows: Hepatotoxicity in DIO C57BL/6 mouse assessed as plasma ALT level at 10 mg/kg, po qd after 10 days (reference value: 58 +/- 5 U/L). It is filed as toxicity, organism-based. The arrangement: dose 10 mg/kg, route oral. The settings on record: in vivo, 240 h.
Data set [8] can be described thus: Half life in DIO mouse at 30 mg/kg, po. The format is ADME, organism-based. Particulars: in vivo. Further details: dose 30 mg/kg, route oral.
For data set [9], the system named is Mus musculus. The data set is described as follows: Hepatotoxicity in DIO C57BL/6 mouse assessed as plasma AST level at 30 mg/kg, po bid after 10 days (reference value: 99 +/- 9 U/L). It is filed as toxicity, organism-based. Further details: dose 30 mg/kg, route oral. Particulars: in vivo, 240 h.
A short description of data set [10]: AUC (24 hrs) in DIO mouse at 30 mg/kg, po. The format is ADME, organism-based. Further details: time < 24 hr, dose 30 mg/kg, route oral. Particulars: plasma.
The test system of data set [11] is Mus musculus. Kind of data set: Antiobesity activity in po dosed DIO C57BL/6 mouse assessed as decrease in body weight gain administered as qd/bid. The format is functional, organism-based.
Data set [12] has as its system Mus musculus. Kind of data set: Antiobesity activity in DIO C57BL/6 mouse assessed as decrease in body weight gain at 10 mg/kg, po qd (reference value: 2.06 +/- 0.33 g). It is filed as functional.
Data set [13] is described as follows: AUC (24 hrs) in rat at 10 mg/kg, po. The format is ADME, organism-based. The arrangement: time < 24 hr, dose 10 mg/kg, route oral. Particulars: plasma.
Data set [14] is described as follows: Volume of distribution at steady state in rat at 2 mg/kg, iv. Particulars: in vivo, read-out: Vdss. Further details: dose 2 mg/kg, route intravenous. It is filed as ADME, organism-based.
Data set [15] can be described thus: Oral bioavailability in rat at 10 mg/kg. The format is ADME, organism-based. Particulars: in vivo.
Data set [16] concerns Mus musculus. Kind of data set: Hepatotoxicity in DIO C57BL/6 mouse assessed as plasma AST level at 30 mg/kg, po qd after 10 days (reference value: 99 +/- 9 U/L). It is filed as toxicity, organism-based. Further details: dose 30 mg/kg, route oral. The settings on record: in vivo, 240 h.
Data set [17] can be described thus: Half life in rat at 10 mg/kg, po. It is filed as ADME, organism-based. Further details: dose 10 mg/kg, route oral. The settings on record: in vivo.
A short description of data set [18]: Cmax in rat at 2 mg/kg, iv. The format is ADME, organism-based. Further details: dose 2 mg/kg, route intravenous. The settings on record: in vivo.
For data set [19], the system named is Mus musculus. The data set is described as follows: Hepatotoxicity in DIO C57BL/6 mouse assessed as plasma AST level at 10 mg/kg, po qd after 10 days (reference value: 99 +/- 9 U/L). It is filed as toxicity, organism-based. The arrangement: dose 10 mg/kg, route oral. Particulars: in vivo, 240 h.
The nature of data set [20]: Cmax in rat at 10 mg/kg, po. The format is ADME, organism-based. Further details: dose 10 mg/kg, route oral. Particulars: in vivo.
In data set [21] the test system is Mus musculus. Kind of data set: Hepatotoxicity in DIO C57BL/6 mouse assessed as plasma ALT level at 30 mg/kg, po bid after 10 days (reference value: 58 +/- 5 U/L). Particulars: in vivo, 240 h. The format is toxicity, organism-based. Further details: dose 30 mg/kg, route oral.
Data set [22] has as its system Mus musculus. The data set is described as follows: Antiobesity activity in DIO C57BL/6 mouse assessed as decrease in body weight gain at 30 mg/kg, po bid (reference value: 2.06 +/- 0.33 g). It is filed as functional.
The nature of data set [23]: AUC (24 hrs) in rat at 2 mg/kg, iv. The format is ADME, organism-based. Further details: time < 24 hr, dose 2 mg/kg, route intravenous. Particulars: plasma.
Data set [24] can be described thus: Half life in rat at 2 mg/kg, iv. The arrangement: dose 2 mg/kg, route intravenous. The settings on record: in vivo. The format is ADME, organism-based.
Data set [25] has as its system Mus musculus. Kind of data set: Antiobesity activity in DIO C57BL/6 mouse assessed as decrease in body weight gain at 30 mg/kg, po qd (reference value: 2.06 +/- 0.33 g). The format is functional.

A word on the IC50: it is the concentration at which inhibition is half-maximal. In the case of `O=C(Nc1nc(CO)cs1)N1CCC(N2CCc3ccc(F)cc32)CC1`, the IC50 in data set [1] worked out at 42 nM.

Take `O=C(CO)N1CCc2nc(NC(=O)N3CCC(N4CCc5ccc(F)cc54)CC3)sc2C1`: the IC50 in [1] is 113 nM.

For `O=C(Nc1nc2c(s1)CNCC2)N1CCC(N2CCc3ccc(F)cc32)CC1`, the IC50 in [1] was 16 nM.

Take `Cc1cnc(NC(=O)N2CCC(N3CCc4ccc(F)cc43)CC2)s1`: in [1], the IC50 was 108 nM.

A word on the inhibition: it is how much of the control response was suppressed. Regarding `CNC(=O)c1cccc(NC(=O)N2CCC(c3c[nH]c4ccccc34)CC2)c1`, in [2], the inhibition worked out at 15%.

`CNC(=O)c1cccc(NC(=O)N2CCC(N3C(=O)Cc4ccccc43)CC2)c1`: in data set [2], the inhibition was 7%.

With `O=C(Nc1ncc(CO)s1)N1CCC(N2CCc3ccc(F)cc32)CC1`, in [1], the IC50 is 154 nM.

As to `CNC(=O)c1csc(NC(=O)N2CCC(N3CCc4ccc(F)cc43)CC2)n1`, the inhibition in [2] amounted to 20%.

As to `NC(=O)c1cnc(NC(=O)N2CCC(N3CCc4ccc(F)cc43)CC2)s1`, in [1], the IC50 is 49 nM.

Take `CC(=O)N1CCc2nc(NC(=O)N3CCC(N4CCc5ccc(F)cc54)CC3)sc2C1`: the inhibition in data set [2] is 46%.

Turning to `O=C(Nc1nc2c(s1)CC(O)CC2)N1CCC(N2CCc3ccc(F)cc32)CC1` (stereo not given), the IC50 was 1 nM in data set [1] and 14 nM in data set [3].

As for `Cc1csc(NC(=O)N2CCC(N3CCc4ccccc43)CC2)n1`, in data set [3], the concentration for half-maximal inhibition (IC50) was determined as 153 nM.

Regarding `O=C(Nc1nc(CCO)cs1)N1CCC(N2CCc3ccc(F)cc32)CC1`, the 50% inhibitory concentration (IC50) in data set [1] is 18 nM.

`O=C(Nc1ncc(CCO)s1)N1CCC(N2CCc3ccc(F)cc32)CC1`: the IC50 in data set [1] was determined as 6 nM.

As for `O=C(Nc1nc2c(s1)CCCC2)N1CCC(N2CCc3ccc(F)cc32)CC1`, the IC50 in data set [1] was determined as 76 nM.

With `Cc1csc(NC(=O)N2CCC(N3CCc4ccc(F)cc43)CC2)n1`, the IC50 in data set [1] was determined as 21 nM.

`O=C1NCCn2nc(NC(=O)N3CCC(N4CCc5ccc(F)cc54)CC3)cc21`: the figures for the IC50 in data set [1] and in data set [3] were 30 nM and 18 nM, respectively.

As for `O=C(Nc1nc2c(s1)COCC2)N1CCC(N2CCc3ccc(F)cc32)CC1`, the half-inhibitory concentration (IC50) in data set [1] was determined as 17 nM.

In the case of `CNC(=O)c1cnc(NC(=O)N2CCC(N3CCc4ccc(F)cc43)CC2)s1`, the IC50 in data set [1] was 206 nM.

The term CL/F denotes clearance divided by bioavailability, as obtained after extravascular dosing. One may read the Cmax as the peak of the concentration-time curve. The half-life is the time needed for the level to fall by half in the phase considered. Read a high half-life as slow decline. One may read the AUC as concentration integrated over time. Low values mean low exposure, high ones high exposure. For orientation: bioavailability means dose-corrected exposure relative to a reference, in per cent. In turn, `Cc1csc(NC(=O)N2CCC(c3noc4ccc(F)cc34)CC2)n1` returned an apparent clearance CL/F in data set [4] of 0.5 mL/min/kg. In addition, the values for the maximum concentration (Cmax) in data set [5], in [18] and in data set [20] were 14900 ng/mL, 9200 ng/mL and 8800 ng/mL, respectively. In addition, the Activity was 68 U/L in data set [6]; 57 U/L in data set [7]; 102 U/L in data set [9]; “Dose-dependent effect” in data set [11]; 0 g in data set [12]; 93 U/L in data set [16]. Further, the Activity in data set [19] is given as 89 U/L; in data set [21], 41 U/L; in [22] it was -0.69 g; in data set [25], 0.01 g. Besides, the IC50 in [1] came out at 54 nM. Moreover, the half-life is 3.1 h in data set [8], 6.3 h in [17] and 3.8 h in data set [24]. In addition, the AUC at 24 h was 169 µg·h/mL in data set [10], 118 µg·h/mL in data set [13] and 49.8 µg·h/mL in data set [23]. In addition, the Vd in data set [14] amounted to 0.19 L/kg. The compound also yielded a bioavailability in [15] of 36.9%.

Turning to `Cc1csc(NC(=O)N2CCC(n3ccc4ccccc43)CC2)n1`, the 50% inhibitory concentration (IC50) in data set [3] was 538 nM.
